This note sets out measurements from patent US6924302B2, “Substituted triazole diamine derivatives as kinase inhibitors” (Ortho McNeil Pharmaceutical, Inc., priority 2000, dated 2005).

Where two headings read alike, the source gives them in different places.

The target of experiment [1] is T1, CDK1:Cyclin-B (Homo sapiens, UniProt P06493).
T1 construct: purchased New England Biolabs 6020; host or cells: insect cells
Briefly: CDK1 Screening Assay. Format: biochemical. The conditions noted are these: read-out: CDK1 IC50. In outline: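 Human CDK1:cyclin-B (30 ng/well) with biotinylated histone-H1 peptide and ^33P-γ-ATP, 1 h at 30° C, 1% DMSO, on streptavidin FlashPlate; incorporation read by scintillation.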

The target of experiment [2] is Insulin Receptor Kinase (Homo sapiens, UniProt P06213). Put plainly: Kinase Selectivity Assay Insulin Receptor Kinase. In kind it is biochemical. The conditions noted are these: Kinase Selectivity, Tables 2a-2k; read-out: Insulin R Kinase IC50. As for the experimental part:
(§1) Assays to test compound inhibition of other kinases were preformed using methods that measure the amount of phosphorylation of a biotinylated peptide substrate. Biotinylated peptide substrates were selected from the literature as appropriate for the enzyme being evaluated. […] Assay conditions vary slightly for each protein kinase, for example, insulin receptor kinase requires 10 mM MnCl2 for activity and Calmodulin-dependent protein kinase requires calmodulin and 10 mM CaCl2. These assay conditions are known in the art. The reaction mixture was dispensed into the wells of a streptavidin coated Flashplate and 1 μl drug stock in 100% DMSO was added to a 100 μl reaction volume resulting in a final concentration of 1% DMSO on the reaction. Enzyme was diluted in 50 mM Tris-HCl pH=8.0, 0.1% BSA and add to each well. The reaction was incubated for one hour at 30° C. in the presence of compound. After one hour the reaction mix was aspirated from the plate and the plate was washed with PBS containing 100 mM EDTA. The plate was read on a scintillation counter to determine ^33P-γ-ATP incorporated into the immobilized peptide. Test compounds were assayed in duplicate at 8 concentrations [100 uM, 10 uM, 1 uM, 100 nM, 10 nM, 1 nM, 100 pM, 10 pM]. A maximum and minimum signal for the assay was determined on each plate. The IC50 was calculated from the dose response curve of the percent inhibition of the maximum signal in the assay according to the formula [max signal—background/test compound signal—background (100)=% inhibition] by graphing the percent inhibition against the log concentration of test compound. Known inhibitor compounds appropriate for the kinase being assayed were also included on each plate.
(§2) CDK2 in complex with cyclin A is commercially available (Upstate Biotech, Lake Placid, N.Y.). The CDK4 complex was composed of a mouse CDK4 protein and a mouse Cyclin D1 protein (The mouse CDK4 protein was genetically fused to an N-terminal Flag-epitope tag and the mouse Cyclin D1 protein was fused with an N-terminal AU-1 epitope tag. The genes encoding these proteins were transferred to commercially available baculoviral vectors. The recombinant CDK4/D1 complex was then made by co-infecting commercially available insect cells with viruses carrying these two constructs). […] ERK-1 protein (Discontinued from Calbiochem). EGFR (epidermal growth factor receptor) is purified from human A431 cell membranes (Sigma, St. Louis, Mo., Cat.# E3641).

For experiment [3], the target named is T2, Protein Kinase A (Bos taurus, UniProt P00517).
T2 construct: purified from bovine heart; purchased Upstate Biotech 14-114; host or cells: bovine heart
Briefly: Kinase Selectivity Assay Protein Kinase A. Format: biochemical, bovine. The conditions noted are these: Kinase Selectivity, Tables 2a-2k; read-out: PKA IC50. As for the experimental part:
as §1, §2

In experiment [4] the target is T3, Casein Kinase 1 (CK1 delta isoform) (Rattus norvegicus, UniProt Q06486).
T3 construct: a truncation at amino acid 318 of the C-terminal portion of the rat CK1 delta isoform; purchased New England Biolabs 6030; host or cells: E. coli
T3 sequence (Q06486 1-317): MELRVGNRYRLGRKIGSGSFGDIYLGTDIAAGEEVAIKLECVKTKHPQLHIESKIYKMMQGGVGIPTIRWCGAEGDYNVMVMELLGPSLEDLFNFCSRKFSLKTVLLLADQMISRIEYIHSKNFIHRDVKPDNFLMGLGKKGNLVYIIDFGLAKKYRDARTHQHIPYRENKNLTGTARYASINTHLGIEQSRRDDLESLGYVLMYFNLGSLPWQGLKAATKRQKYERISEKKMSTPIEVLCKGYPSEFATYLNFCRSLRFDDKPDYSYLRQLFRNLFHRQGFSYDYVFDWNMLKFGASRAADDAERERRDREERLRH
Briefly: Kinase Selectivity Assay Casein Kinase 1. Format: biochemical. The settings on record: Tables 2a-2k, read-out: Caseine Kinase 1 IC50. As for the experimental part:
as §1, §2

Experiment [5] deals with T4, Casein Kinase 2 (alpha and beta subunits) (Homo sapiens, UniProt P68400).
T4 construct: purchased New England Biolabs 6010; host or cells: E. coli
T4 sequence (P68400 whole entry): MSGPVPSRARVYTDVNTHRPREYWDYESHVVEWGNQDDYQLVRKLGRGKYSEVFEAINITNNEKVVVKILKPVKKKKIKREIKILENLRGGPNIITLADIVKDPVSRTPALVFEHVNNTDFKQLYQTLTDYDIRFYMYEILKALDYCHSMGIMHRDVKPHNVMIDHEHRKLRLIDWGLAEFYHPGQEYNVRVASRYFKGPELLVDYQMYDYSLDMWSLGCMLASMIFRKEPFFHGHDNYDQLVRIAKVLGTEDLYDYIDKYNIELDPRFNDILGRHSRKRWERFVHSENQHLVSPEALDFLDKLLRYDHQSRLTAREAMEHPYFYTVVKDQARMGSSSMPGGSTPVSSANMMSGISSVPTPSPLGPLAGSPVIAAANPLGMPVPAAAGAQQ
T4 sequence (P67870 whole entry partner): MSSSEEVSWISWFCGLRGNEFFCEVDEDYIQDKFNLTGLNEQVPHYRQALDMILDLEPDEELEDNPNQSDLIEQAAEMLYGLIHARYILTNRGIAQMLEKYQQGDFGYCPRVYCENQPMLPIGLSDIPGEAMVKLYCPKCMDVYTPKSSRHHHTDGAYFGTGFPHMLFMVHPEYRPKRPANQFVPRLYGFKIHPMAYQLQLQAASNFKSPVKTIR
Put plainly: Kinase Selectivity Assay Casein Kinase 2. The settings on record: Kinase Selectivity, Tables 2a-2k; read-out: Caseine Kinase 2 IC50. In kind it is biochemical. On the procedure: as §1, §2

The target of experiment [6] is T5, Calmodulin Kinase (calmodulin-dependent protein kinase 2) (Rattus norvegicus, UniProt P11275).
T5 construct: a truncated version of the alpha subunit of the rat protein; purchased New England Biolabs 6060; host or cells: insect cells
Put plainly: Kinase Selectivity Assay Calmodulin Kinase. Format: biochemical. The settings on record: Kinase Selectivity, Tables 2a-2k; read-out: Calmodulin Kinase 2 IC50. As for the experimental part:
as §1, §2

Experiment [7] addresses T6, Glycogen Synthase Kinase-3 (beta isoform) (Oryctolagus cuniculus, UniProt G1T8E2).
T6 construct: purchased New England Biolabs 6040; host or cells: E. coli
Briefly: Kinase Selectivity Assay Glycogen Synthase Kinase-3. Format: biochemical, rabbit. The conditions noted are these: Kinase Selectivity, Tables 2a-2k; read-out: GSK-3 IC50. As for the experimental part:
as §1, §2

Experiment [8] has as its target T7, MAP Kinase (ERK-2 isoform) (Rattus norvegicus, UniProt P63086).
T7 construct: polyhistidine (N); host or cells: E. coli
Put plainly: Kinase Selectivity Assay MAP Kinase (ERK-2). Format: biochemical. The conditions noted are these: Kinase Selectivity, Tables 2a-2k; read-out: ERK 2 IC50. As for the experimental part: as §1, §2

Experiment [9] addresses T8, PDGF-R (platelet derived growth factor receptor) beta subunit kinase domain (Homo sapiens, UniProt P09619).
T8 construct: nucleotides 1874-3507 of the human PDGF-R beta subunit kinase domain; polyhistidine (N)
Briefly: Kinase Selectivity Assay PDGF-R. Format: biochemical. The settings on record: Kinase Selectivity, Tables 2a-2k; read-out: PDGF-R kinase IC50. On the procedure:
as §1, §2

Experiment [10] has as its target T9, HER2 (human epidermal growth factor receptor-2) (Homo sapiens, UniProt P04626).
T9 construct: begins at amino acid 676 followed by the remainder of the HER2 cytoplasmic domain; polyhistidine (N)
Put plainly: Kinase Selectivity Assay HER2. In kind it is biochemical. In outline: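 Reactions ran one hour at 30° C in 1% DMSO with enzyme diluted in 50 mM Tris-HCl pH 8.0, 0.1% BSA. Scintillation counting read ^33P incorporated into immobilized biotinylated peptide.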

Experiment [11] has as its target FGF-R2 (Homo sapiens, UniProt P21802). Briefly: Kinase Selectivity Assay FGF-R2. In kind it is biochemical. The conditions noted are these: Tables 2a-2k. On the procedure: as §1
Experiment [12] concerns the target T10, CDK2 in complex with cyclin A (Homo sapiens, UniProt P24941).
T10 construct: purchased Upstate Biotech
Put plainly: Kinase Selectivity Assay CDK2. Format: biochemical. The conditions noted are these: Table 1. On the procedure: as §1, §2

Experiment [13] relates to HeLa cervical adenocarcinoma. Put plainly: Inhibition of Cell Proliferation (14C-thymidine incorporation), HeLa. The settings on record: Homo sapiens, HeLa cell line. Format: cell-based. On the procedure:
(§3) The ability of a test compound to inhibit the proliferation of cell growth was determined by measuring incorporation of ^14C-labelled thymidine into newly synthesized DNA within the cells. This method was used on cell lines derived from carcinomas originating from several tissues such as HeLa cervical adenocarcinoma (American Type Culture Collection (ATCC), Virginia, Cat. #CCL-2), A375 malignant melanoma (ATCC CRL-1619), SK-OV-3 ovarian adenocarcinoma (ATCC HTB-77) HCT-116 colon carcinoma (CCL-247), PC-3 prostate adenocarcinoma (ATCC CRL-1435), and MDA-MB-231 (Xenogen Corp.) In this way the effect of a compound on cell growth of cells with many different phenotypes can be determined. Cells were trypsinized and counted and 3000-8000 cells were added to each well of a 96-well CytoStar tissue culture treated scintillating microplate (Amersham #RPNQ0160) in complete medium in a volume of 100 μl. Cells were incubated for 24 hours in complete medium at 37° C. in an atmosphere containing 5% CO2. Next, 1 μl of test compound in 100% DMSO was added to the wells of the plate. DMSO only was added to control wells. Cells were incubated for 24 more hours in complete medium at 37° C. in an atmosphere containing 5% CO2. Methyl ^14C-thymidine 56 mCi/mmol (NEN #NEC568 or Amersham #CFA532) was diluted in complete medium and 0.2 uCi/well was added to each well of the CytoStar plate in a volume of 20 μl. The plate was incubated for 24 hours at 37° C. plus 5% CO2 in drug plus ^14C-thymidine. The contents of the plate were discarded into a ^14C radioactive waste container by inverting the plate and the plate was washed twice with 200 μl PBS. 200 μl of PBS is added to each well. The top of the plate was sealed with a transparent plate sealer and a white plate backing sealer (Packard #6005199) was applied to the bottom of the plate. The degree of methyl ^14C-thymidine incorporation was quantified on a Packard Top Count.
(In general: Incorporation of labelled thymidine or its analogues reports DNA synthesis.)

Experiment [14] has as its system A375 malignant melanoma. Briefly: Inhibition of Cell Proliferation (14C-thymidine incorporation), A375. Format: cell-based. The settings on record: Homo sapiens, A-375, A375 cell line. On the procedure: as §3
Experiment [15] relates to HCT-116 colon carcinoma. Briefly: Inhibition of Cell Proliferation (14C-thymidine incorporation), HCT-116. In kind it is cell-based. The settings on record: Homo sapiens, HCT-116 cell line. On the procedure:
as §3

Chain of Insulin Receptor Kinase (P06213 980-1352): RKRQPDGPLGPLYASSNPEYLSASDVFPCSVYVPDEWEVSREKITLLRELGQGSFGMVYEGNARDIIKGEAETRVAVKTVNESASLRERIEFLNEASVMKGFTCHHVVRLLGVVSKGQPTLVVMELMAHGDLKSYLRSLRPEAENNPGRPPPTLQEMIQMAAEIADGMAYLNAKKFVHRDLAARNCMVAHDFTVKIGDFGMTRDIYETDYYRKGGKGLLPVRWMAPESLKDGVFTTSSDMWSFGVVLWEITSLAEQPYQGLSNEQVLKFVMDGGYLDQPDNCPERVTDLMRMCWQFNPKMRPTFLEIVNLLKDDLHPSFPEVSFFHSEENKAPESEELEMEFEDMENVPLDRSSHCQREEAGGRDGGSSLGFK
T8 sequence (P09619 564-1106): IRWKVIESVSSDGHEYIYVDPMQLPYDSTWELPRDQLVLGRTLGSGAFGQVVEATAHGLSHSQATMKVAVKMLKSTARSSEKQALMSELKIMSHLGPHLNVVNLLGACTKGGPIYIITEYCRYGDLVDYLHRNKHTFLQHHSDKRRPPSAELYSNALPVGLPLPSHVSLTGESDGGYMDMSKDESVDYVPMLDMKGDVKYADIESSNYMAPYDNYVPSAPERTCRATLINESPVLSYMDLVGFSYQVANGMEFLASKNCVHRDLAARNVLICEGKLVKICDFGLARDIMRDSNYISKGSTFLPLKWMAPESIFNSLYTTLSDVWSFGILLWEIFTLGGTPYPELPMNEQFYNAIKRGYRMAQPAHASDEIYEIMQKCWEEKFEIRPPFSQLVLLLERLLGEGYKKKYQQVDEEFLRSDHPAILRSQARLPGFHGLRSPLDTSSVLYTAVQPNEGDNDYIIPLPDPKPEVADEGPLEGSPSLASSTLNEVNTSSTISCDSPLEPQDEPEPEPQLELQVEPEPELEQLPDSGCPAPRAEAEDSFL
Chain of FGF-R2 (P21802 22-821, species assumed): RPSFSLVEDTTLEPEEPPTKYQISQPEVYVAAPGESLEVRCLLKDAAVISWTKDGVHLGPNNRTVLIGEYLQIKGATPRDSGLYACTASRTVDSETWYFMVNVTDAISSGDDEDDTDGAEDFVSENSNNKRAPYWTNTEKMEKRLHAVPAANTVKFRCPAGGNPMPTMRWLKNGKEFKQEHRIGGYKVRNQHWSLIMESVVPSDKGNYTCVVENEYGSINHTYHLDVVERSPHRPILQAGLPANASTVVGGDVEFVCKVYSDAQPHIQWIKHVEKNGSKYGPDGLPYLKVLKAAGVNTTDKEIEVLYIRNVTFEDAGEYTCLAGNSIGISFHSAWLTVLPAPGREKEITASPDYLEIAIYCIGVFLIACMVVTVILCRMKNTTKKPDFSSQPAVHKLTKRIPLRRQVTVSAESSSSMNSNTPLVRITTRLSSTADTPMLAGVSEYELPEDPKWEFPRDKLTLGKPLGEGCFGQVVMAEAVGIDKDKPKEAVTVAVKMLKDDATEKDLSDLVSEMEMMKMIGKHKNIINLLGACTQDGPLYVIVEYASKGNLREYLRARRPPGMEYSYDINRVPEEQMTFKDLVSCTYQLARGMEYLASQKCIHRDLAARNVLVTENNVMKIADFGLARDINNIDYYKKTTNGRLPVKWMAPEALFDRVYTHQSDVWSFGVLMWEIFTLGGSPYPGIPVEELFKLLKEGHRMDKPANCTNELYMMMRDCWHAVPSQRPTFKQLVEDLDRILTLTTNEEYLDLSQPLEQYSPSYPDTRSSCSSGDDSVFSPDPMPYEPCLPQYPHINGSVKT
T7 sequence (P63086 whole entry, canonical isoform): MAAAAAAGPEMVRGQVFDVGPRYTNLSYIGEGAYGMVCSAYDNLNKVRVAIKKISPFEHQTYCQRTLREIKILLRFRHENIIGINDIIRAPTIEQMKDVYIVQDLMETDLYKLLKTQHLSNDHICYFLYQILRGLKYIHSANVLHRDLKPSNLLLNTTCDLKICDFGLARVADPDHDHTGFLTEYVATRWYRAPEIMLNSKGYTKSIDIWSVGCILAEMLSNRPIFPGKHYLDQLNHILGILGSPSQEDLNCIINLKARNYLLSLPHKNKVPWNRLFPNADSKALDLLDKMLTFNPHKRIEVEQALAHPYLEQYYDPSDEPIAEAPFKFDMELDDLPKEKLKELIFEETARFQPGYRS
T6 sequence (G1T8E2 1-432): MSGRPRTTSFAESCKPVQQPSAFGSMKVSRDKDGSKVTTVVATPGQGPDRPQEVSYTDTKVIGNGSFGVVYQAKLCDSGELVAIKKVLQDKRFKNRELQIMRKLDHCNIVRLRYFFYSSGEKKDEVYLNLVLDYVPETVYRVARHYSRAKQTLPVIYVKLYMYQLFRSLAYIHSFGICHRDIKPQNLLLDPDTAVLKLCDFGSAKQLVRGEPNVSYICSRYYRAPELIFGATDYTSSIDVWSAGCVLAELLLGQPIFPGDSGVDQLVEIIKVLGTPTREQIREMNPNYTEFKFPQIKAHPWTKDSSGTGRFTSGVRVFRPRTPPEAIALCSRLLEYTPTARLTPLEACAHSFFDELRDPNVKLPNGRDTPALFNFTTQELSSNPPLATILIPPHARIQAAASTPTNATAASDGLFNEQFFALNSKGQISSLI
T1 sequence (P06493 whole entry): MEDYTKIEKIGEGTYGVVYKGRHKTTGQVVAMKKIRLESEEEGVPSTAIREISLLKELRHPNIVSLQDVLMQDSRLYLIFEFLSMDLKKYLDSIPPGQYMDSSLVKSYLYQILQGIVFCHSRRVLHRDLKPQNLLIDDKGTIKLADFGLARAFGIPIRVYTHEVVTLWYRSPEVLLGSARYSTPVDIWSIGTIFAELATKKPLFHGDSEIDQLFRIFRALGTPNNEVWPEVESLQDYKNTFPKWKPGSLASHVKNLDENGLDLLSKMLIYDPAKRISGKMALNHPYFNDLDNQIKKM
T1 sequence (P14635 whole entry partner): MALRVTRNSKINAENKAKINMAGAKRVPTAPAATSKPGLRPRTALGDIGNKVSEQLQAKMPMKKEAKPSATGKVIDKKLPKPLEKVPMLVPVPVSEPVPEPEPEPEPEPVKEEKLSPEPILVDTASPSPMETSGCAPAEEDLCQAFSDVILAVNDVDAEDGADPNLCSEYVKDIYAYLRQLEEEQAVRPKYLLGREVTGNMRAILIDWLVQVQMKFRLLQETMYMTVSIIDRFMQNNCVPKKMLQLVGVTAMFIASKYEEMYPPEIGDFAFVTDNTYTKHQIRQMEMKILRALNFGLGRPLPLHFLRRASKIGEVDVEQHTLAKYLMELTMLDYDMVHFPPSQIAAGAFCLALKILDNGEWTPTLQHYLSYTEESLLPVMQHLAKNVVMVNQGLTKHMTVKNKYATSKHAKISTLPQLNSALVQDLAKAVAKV
T9 sequence (P04626 676-1255 limits assumed): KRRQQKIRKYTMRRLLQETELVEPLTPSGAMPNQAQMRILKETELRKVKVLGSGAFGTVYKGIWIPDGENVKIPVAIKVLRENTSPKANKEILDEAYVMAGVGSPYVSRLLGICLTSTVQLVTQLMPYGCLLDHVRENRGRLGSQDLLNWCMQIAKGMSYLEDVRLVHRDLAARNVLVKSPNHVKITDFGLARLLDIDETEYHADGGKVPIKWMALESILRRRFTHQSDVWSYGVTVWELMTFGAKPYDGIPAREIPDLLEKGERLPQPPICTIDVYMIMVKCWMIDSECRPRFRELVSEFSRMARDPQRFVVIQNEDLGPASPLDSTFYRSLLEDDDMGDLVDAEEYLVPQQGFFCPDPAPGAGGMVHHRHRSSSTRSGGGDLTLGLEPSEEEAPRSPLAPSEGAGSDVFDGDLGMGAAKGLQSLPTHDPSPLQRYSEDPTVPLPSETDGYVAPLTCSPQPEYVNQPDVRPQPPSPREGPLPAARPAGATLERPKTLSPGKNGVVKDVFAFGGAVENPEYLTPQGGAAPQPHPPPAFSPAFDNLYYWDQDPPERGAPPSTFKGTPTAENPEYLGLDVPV

Turning to `Nc1ccc(F)c(C(=O)n2nc(Nc3ccc(S(N)(=O)=O)cc3)nc2N)c1F` [Cpd 55, 4-[[5-amino-1-(3-amino-2,6-difluorobenzoyl)-1H-1,2,4-triazol-3-yl]amino]-benzenesulfonamide], the IC50 – broadly, the concentration needed to halve the response being measured – is 20 nM in experiment [1] (Kinase Selectivity, Tables 2a-2k); 22 nM in [1] (Table 1); greater than 100000 nM in experiment [2]; greater than 100000 nM in experiment [3]; 9600 nM in [4]; greater than 100000 nM in experiment [5]. Further, the IC50 is greater than 100000 nM in [6]; 40 nM in experiment [7]; 12900 nM in experiment [8]; 16200 nM in experiment [9]; 2190 nM in experiment [10] (Kinase Selectivity, Tables 2a-2k, read-out: HER2 Kinase IC50); 2190 nM in experiment [10] (Table 1, read-out: HER2 IC50). In experiment [11], this compound had a half-maximal inhibitory concentration (IC50) of 478 nM.
On to `Cc1ccc(F)c(C(=O)n2nc(Nc3ccc(S(=O)(=O)NCCN(C)C)cc3)nc2N)c1F` [Cpd 105], for which the IC50 is 2 nM in experiment [12]; 9850 nM in [2]; greater than 100000 nM in experiment [3]; 4490 nM in experiment [4]; greater than 100000 nM in [5]; greater than 100000 nM in experiment [6]. Further, the IC50 in experiment [7] was 82 nM; in [8], 18200 nM; in [9] it was 2200 nM; in experiment [13], 626 nM; in [14], 652 nM; in experiment [15] it was 320 nM. Besides, in experiment [11], the IC50 came to 142 nM.
`Cc1cc(C)c(C(=O)n2nc(Nc3ccc(S(=O)(=O)NCCN(C)C)cc3)nc2N)s1` [Cpd 107]: the IC50 in [12] was 2 nM; in experiment [2], 311 nM; in experiment [3], greater than 100000 nM; in experiment [4] it was 412 nM; in experiment [5], greater than 10000 nM; in experiment [6], 3430 nM. In addition, the IC50 was 15 nM in experiment [7]; greater than 10000 nM in experiment [8]; 143 nM in experiment [9]; 177 nM in experiment [13]; 113 nM in experiment [14]; 95 nM in experiment [15]. The same compound came in with a concentration for half-maximal inhibition (IC50) in experiment [11] of 235 nM.
For `Cc1ccc(F)c(C(=O)n2nc(Nc3ccc(N4CCNC4=O)cc3)nc2N)c1F` [Cpd 114, 1-[4-[[5-amino-1-(2,6-difluoro-3-methylbenzoyl)-1H-1,2,4-triazol-3-yl]amino]phenyl]-2-imidazolidinone], the IC50 in experiment [2] is greater than 100000 nM; in experiment [3], greater than 100000 nM; in [4], 2000 nM; in [5], greater than 100000 nM; in [6] it was greater than 100000 nM; in [7], 431 nM. In addition, the IC50 in experiment [8] is 15800 nM; in [9], 13800 nM; in experiment [13], 2530 nM; in [14] it was 1690 nM; in [15], 1380 nM.
For the compound `Nc1nc(Nc2ccc(N3CCNC3=O)cc2)nn1C(=O)c1c(F)cccc1F` [Cpd 115, 1-[4-[[5-amino-1-(2,6-difluorobenzoyl)-1H-1,2,4-triazol-3-yl]amino]phenyl]-2-imidazolidinone], the IC50 was greater than 10000 nM in [2]; greater than 100000 nM in experiment [3]; 9980 nM in [4]; greater than 100000 nM in experiment [5]; greater than 100000 nM in experiment [6]; 391 nM in [7]. The IC50 was greater than 10000 nM in [8]; greater than 10000 nM in experiment [9]; 676 nM in experiment [13]; 529 nM in experiment [14]; 486 nM in experiment [15].
In the case of `Cc1ccsc1C(=O)n1nc(Nc2ccc(S(=O)(=O)Nc3ccccn3)cc2)nc1N` [Cpd 121], the IC50 in [12] was 3 nM; in [2], greater than 100000 nM; in experiment [3] it was greater than 100000 nM; in [4], greater than 10000 nM; in [5], greater than 100000 nM; in experiment [6] it was greater than 100000 nM. Moreover, the IC50 was 29 nM in experiment [7]; greater than 100000 nM in experiment [8]; 394 nM in experiment [9]; 310 nM in experiment [13]; 215 nM in experiment [14]; 608 nM in [15].
